Several values for one entry are separate records, joined by “and”; a condition that tells them apart may be missing. Equal entries are not always repeated.
Key:
[1] = test system: LHGFR0N3C expressed in E. coli BL21(DE3); assay: Specificity of LHGFR0N3C expressed in E. coli BL21(DE3), 1 mM compounds; type: cell-based; details: for Emission ratio: 1 mM compound, Fig. 5c
Method: (§1) To characterize the sensitivity and specificity of LHGFR expressed in E. coli BL21(DE3), 90 μL cell suspensions following 8 h carbon starvation were mixed with 10 μL increasing concentrations of L-2-HG or other compounds, and then added into a black 96-well plate (total 100 μL/per well), the fluorescence intensities were determined using an EnSight microplate reader (PerkinElmer, USA) and the following instrument settings: excitation at 430 nm, emission at 485 nm (mTFP) and 528 nm (Venus), time intervals of 5 min, the temperature at 37 °C, and shake at 180 rpm.

[2] = test system: LHGFR0N7C expressed in E. coli BL21(DE3); assay: Specificity of LHGFR0N7C expressed in E. coli BL21(DE3), 1 mM compounds; type: cell-based; details: Supplementary Fig. 13c
Method: as §1

[3] = test system: LHGFR3N7C expressed in E. coli BL21(DE3); assay: Control biosensor LHGFR3N7C expressed in E. coli, response to added compounds; type: cell-based; details: Supplementary Fig. 14a
Method: as §1

[4] = test system: LHGFR0N3C expressed in HEK293FT cells; assay: Specificity of LHGFR0N3C expressed in permeabilized HEK293FT cells, 1 mM compounds; type: cell-based, human (HEK293FT cells)
Method: To characterize the sensitivity and specificity of LHGFR expressed in HEK293FT cells, cells were trypsinized 48 h following transfection and suspended in 1× Hank’s balanced salt solution supplemented with 20 mM HEPES. […] Digitonin at a concentration of 10 μM was used to induce cell permeabilization and deplete intracellular L-2-HG for in vivo response curves construction. Then, the fluorescence intensities were determined by a SpectraMax i3 fluorescence plate reader (Molecular Devices, USA) with excitation at 430 nm and emission at 485 nm (mTFP) and 528 nm (Venus). Basal L-2-HG concentration in HEK293FT cells under physiological conditions was determined by substituting the emission ratios of non-permeabilized HEK293FT cells into the calibrated in vivo response curves.

Q: O=C(O)CC[C@H](O)C(=O)O [L-2-HG, L-2-Hydroxyglutarate] was tested. Which Emission ratio ([1]; 55 min) did it give?
A: The Emission ratio was 1.343 and 1.33 and 1.32.

Q: And the Emission ratio ([1]; 60 min)?
A: The Emission ratio was 1.3375 and 1.331 and 1.312.

Q: What about the Emission ratio ([1]; 65 min) of the same compound?
A: Its Emission ratio is 1.326 and 1.339 and 1.336.

Q: What about the Emission ratio ([1]; 70 min) of the same compound?
A: Its Emission ratio is 1.339 and 1.343 and 1.334.

Q: What about the Emission ratio ([1]; 75 min) of the same compound?
A: The Emission ratio was 1.32 and 1.336 and 1.325.

Q: And the Emission ratio ([1]; 80 min)?
A: The Emission ratio was 1.332 and 1.339 and 1.343.

Q: What about the Emission ratio ([1]; 85 min) of the same compound?
A: Its Emission ratio is 1.326 and 1.34 and 1.332.

Q: What about the Emission ratio ([1]; 90 min) of the same compound?
A: The Emission ratio was 1.323 and 1.316 and 1.34.

Q: And the “Increase of the emission ratio in E. coli BL21(DE3)” value ([1]; 1 mM exogenous compound)?
A: Its value is “could significantly increase the emission ratio”.

Q: What about the “normalized emission ratio of biosensor expressed in E. coli” value (shortened to “normalized emission ratio of biosensor”) ([2]; time 0 min) of the same compound?
A: The value was 1.016 and 1.006 and 1.026.

Q: And the “normalized emission ratio of biosensor” value ([2]; time 5 min)?
A: Its value is 1.0991 and 1.081 and 1.1.

Q: And the “normalized emission ratio of biosensor” value ([2]; time 10 min)?
A: Its value is 1.206 and 1.179 and 1.184.

Q: And the “normalized emission ratio of biosensor” value ([2]; time 15 min)?
A: The value was 1.293 and 1.273 and 1.276.

Q: What about the “normalized emission ratio of biosensor” value ([2]; time 20 min) of the same compound?
A: Its value is 1.341 and 1.328 and 1.319.

Q: And the “normalized emission ratio of biosensor” value ([2]; time 25 min)?
A: The value was 1.35 and 1.357 and 1.333.

Q: And the “normalized emission ratio of biosensor” value ([2]; time 30 min)?
A: The value was 1.374 and 1.365 and 1.366.

Q: And the “normalized emission ratio of biosensor” value ([2]; time 35 min)?
A: The value was 1.386 and 1.367 and 1.374.

Q: What about the “normalized emission ratio of biosensor” value ([2]; time 40 min) of the same compound?
A: Its value is 1.391 and 1.384 and 1.386.

Q: What about the “normalized emission ratio of biosensor” value ([2]; time 45 min) of the same compound?
A: Its value is 1.414 and 1.39 and 1.389.

Q: And the “normalized emission ratio of biosensor” value ([2]; time 50 min)?
A: Its value is 1.407 and 1.378 and 1.396.

Q: And the “normalized emission ratio of biosensor” value ([2]; time 55 min)?
A: Its value is 1.415 and 1.39 and 1.4085.

Q: And the “normalized emission ratio of biosensor” value ([2]; time 60 min)?
A: The value was 1.43 and 1.394 and 1.408.

Q: And the “normalized emission ratio of biosensor” value ([2]; time 65 min)?
A: The value was 1.417 and 1.4114 and 1.411.

Q: What about the “normalized emission ratio of biosensor” value ([2]; time 70 min) of the same compound?
A: The value was 1.41 and 1.402 and 1.422.

Q: And the “normalized emission ratio of biosensor” value ([2]; time 75 min)?
A: The value was 1.393 and 1.405 and 1.423.

Q: And the “normalized emission ratio of biosensor” value ([2]; time 80 min)?
A: Its value is 1.412 and 1.416 and 1.423.

Q: What about the “normalized emission ratio of biosensor” value ([2]; time 85 min) of the same compound?
A: The value was 1.389 and 1.408 and 1.4341.

Q: And the “normalized emission ratio of biosensor” value ([2]; time 90 min)?
A: Its value is 1.404 and 1.406 and 1.429.

Q: What about the “normalized emission ratio of control biosensor expressed in E. coli” value ([3]; time 0 min) of the same compound?
A: The value was 1.025 and 0.9958 and 0.9991 and 1.005.

Q: And the “normalized emission ratio of control biosensor expressed in E. coli” value ([3]; time 5 min)?
A: The value was 1.029 and 0.9977 and 0.9908 and 1.001.

Q: What about the “normalized emission ratio of control biosensor expressed in E. coli” value ([3]; time 10 min) of the same compound?
A: The value was 1.016 and 0.9993 and 0.9928 and 0.996.

Q: What about the “normalized emission ratio of control biosensor expressed in E. coli” value ([3]; time 15 min) of the same compound?
A: Its value is 1.012 and 0.9858 and 0.9895 and 0.9948.

Q: What about the “normalized emission ratio of control biosensor expressed in E. coli” value ([3]; time 20 min) of the same compound?
A: Its value is 1.006 and 0.9892 and 0.9883 and 1.004.

Q: And the “normalized emission ratio of control biosensor expressed in E. coli” value ([3]; time 25 min)?
A: The value was 1.005 and 0.9958 and 0.9871 and 1.006.

Q: What about the “normalized emission ratio of control biosensor expressed in E. coli” value ([3]; time 30 min) of the same compound?
A: The value was 1.009 and 0.9836 and 0.9873 and 0.9978.

Q: And the “normalized emission ratio of control biosensor expressed in E. coli” value ([3]; time 35 min)?
A: Its value is 1.002 (2×) and 0.988 and 0.9805.

Q: And the “normalized emission ratio of control biosensor expressed in E. coli” value ([3]; time 40 min)?
A: Its value is 1.005 and 0.9884 and 0.9838 and 1.008.

Q: And the “normalized emission ratio of control biosensor expressed in E. coli” value ([3]; time 45 min)?
A: The value was 1.011 and 0.9924 and 0.993 and 1.004.

Q: And the “normalized emission ratio of control biosensor expressed in E. coli” value ([3]; time 50 min)?
A: The value was 0.997 and 0.991 and 0.9858 and 1.009.

Q: What about the “normalized emission ratio of control biosensor expressed in E. coli” value ([3]; time 55 min) of the same compound?
A: The value was 1.0056 and 0.9921 and 0.9909 and 1.012.

Q: What about the “normalized emission ratio of control biosensor expressed in E. coli” value ([3]; time 60 min) of the same compound?
A: Its value is 1.003 and 0.9967 and 0.9937 and 1.007.

Q: What about the “normalized emission ratio of control biosensor expressed in E. coli” value ([3]; time 65 min) of the same compound?
A: Its value is 0.9962 (2×) and 0.991 and 1.017.

Q: What about the “normalized emission ratio of control biosensor expressed in E. coli” value ([3]; time 70 min) of the same compound?
A: Its value is 1.013 and 1.001 and 0.9947 and 1.016.

Q: And the “normalized emission ratio of control biosensor expressed in E. coli” value ([3]; time 75 min)?
A: Its value is 1.004 and 0.9948 and 0.9987 and 1.025.

Q: What about the “normalized emission ratio of control biosensor expressed in E. coli” value ([3]; time 80 min) of the same compound?
A: Its value is 1.011 and 1.0052 and 1.01 and 1.025.

Q: What about the “normalized emission ratio of control biosensor expressed in E. coli” value ([3]; time 85 min) of the same compound?
A: Its value is 1.015 and 0.9941 and 1.005 and 1.023.

Q: What about the “normalized emission ratio of control biosensor expressed in E. coli” value ([3]; time 90 min) of the same compound?
A: The value was 1.028 and 1.011 and 1.01 and 1.022.

Q: What about the “Increase of the emission ratio of LHGFR0N3C” value ([4]; 10 μM digitonin-permeabilized HEK293FT cells) of the same compound?
A: Its value is “Only exogenous L-2-HG could significantly increase the emission ratio”.

Q: What about the Normalized emission ratio ([4]; 1 mM compound, cells permeabilized with 10 μM digitonin, normalized to control) of the same compound?
A: Its Normalized emission ratio is 1.418 and 1.367 and 1.404.

Source: article PMC8206213, “An L-2-hydroxyglutarate biosensor based on specific transcriptional regulator LhgR” (Nature Communications, 2021)
